The target of data set [1] is T1, Dermatophagoides farinae allergen (DerfII) (Dermatophagoides farinae, UniProt Q00855).
T1 sequence (Q00855 18-146): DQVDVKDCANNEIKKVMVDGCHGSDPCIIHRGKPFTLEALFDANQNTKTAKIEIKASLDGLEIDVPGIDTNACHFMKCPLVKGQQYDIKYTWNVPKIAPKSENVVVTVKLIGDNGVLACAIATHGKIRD
It is filed as biochemical. As to conditions: 1 mg of sample.
Method: (§3) The anti-allergen effect of the present invention is evaluated by a sandwich ELISA method, which is widely known as a method for detecting/quantifying an antigen, and is expressed as the percentage allergen inactivation shown in Equation 1. The initial amount of allergen means the amount of allergen used in an ELISA evaluation, and the amount of allergen remaining means the amount of allergen after contacting a sample.
(§4) Percentage allergen inactivation=(1−amount of allergen remaining/initial amount of allergen)×100(%) <Equation 1>
Anti-allergen effects were evaluated by a sandwich ELISA method employing Dermatophagoides farinae allergen (allergen generally called DerfII) and Cryptomeria japonica pollen allergen (allergen generally called Cryj1). […]
1 mg or 10 mg of a sample was weighed, and 500 μL of Dermatophagoides farinae allergen (DerfII) prepared at 40 ng/mL using an antigen diluent was added thereto. […] After 30 minutes, 2N sulfuric acid was added so as to stop the reaction, and the absorbance at 490 nm was measured. The results were expressed as percentage allergen inactivation of various samples by determining the relationship between amount of allergen and absorbance from an evaluation carried out without using a sample, determining the amount of allergen remaining from the absorbance obtained when evaluating various types of samples, and calculating from equation 1.

The target of data set [2] is T2, Cryptomeria japonica pollen allergen (Cryj1) (Cryptomeria japonica, UniProt P18632).
T2 sequence (P18632 22-374): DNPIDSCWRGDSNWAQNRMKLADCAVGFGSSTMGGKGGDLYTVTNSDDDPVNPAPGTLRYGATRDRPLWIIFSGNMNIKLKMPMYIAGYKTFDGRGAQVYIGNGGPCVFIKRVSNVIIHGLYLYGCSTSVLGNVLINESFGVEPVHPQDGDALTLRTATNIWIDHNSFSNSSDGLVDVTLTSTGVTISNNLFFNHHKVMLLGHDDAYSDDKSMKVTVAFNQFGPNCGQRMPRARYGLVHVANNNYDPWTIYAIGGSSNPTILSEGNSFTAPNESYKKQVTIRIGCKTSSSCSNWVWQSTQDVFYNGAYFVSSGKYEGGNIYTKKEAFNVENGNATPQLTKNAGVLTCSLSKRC
It is filed as biochemical. Particulars: 1 mg of sample.
Method: as §3, §4
The test procedure for the sandwich ELISA method when Cryptomeria japonica pollen allergen was used was as follows.
1 mg or 10 mg of a sample was weighed, and 500 μL of Cryptomeria japonica pollen allergen (Cryj1) prepared at 10 ng/mL using an antigen diluent was added thereto. […] After 2 hours, the antibody liquid was discarded, each well was washed with washing buffer, a substrate liquid was added to each well, and the wells were allowed to stand at room temperature. After 10 minutes, 2N sulfuric acid was added so as to stop the reaction, and the absorbance at 490 nm was measured. The results are expressed as percentage allergen inactivation of various types of samples by calculating from Equation 1 by the same method as for Dermatophagoides farinae allergen.

Data set [3] deals with T3, Dermatophagoides farinae allergen (Den) (Dermatophagoides farinae, UniProt Q00855).
T3 sequence (Q00855 18-146): T1 sequence (Q00855 18-146)
The data set is described as follows: ELISA, anti-allergen effect of processed fiber product. It counts as biochemical. Particulars: fabric after washing in 500 mL ion exchanged water 1 minute, air-dried; standardized to blank = 0. The procedure: When a test target is an article comprising another substance in addition to an anti-allergen agent, such as a coating agent containing an anti-allergen agent, a resin kneaded with an anti-allergen agent, or a fiber having an anti-allergen agent attached thereto, a blank test is carried out using the same article except that the anti-allergen agent is excluded, and other measurement results may be standardized so that the percentage allergen inactivation of the blank test becomes 0. In this case, as long as it is stated that a measurement result is standardized, the value after standardization may be used as the percentage allergen inactivation.
The anti-allergen effects of a processed fiber product were evaluated as percentage anti-allergen inactivation from Equation 1 above by measuring absorbance by the same ELISA method as for a solid acid powder using Dermatophagoides farinae allergen (Den) as the allergen and dividing […] of fiber into 8, and comparing with the absorbance when a fiber product having no solid acid added thereto was used.

Data set [4] in a line: Yellowness (YI value, JIS-K7103-1977). It counts as physicochemical. As to conditions: powder. The text has this:
With regard to a preferred yellowness, the YI value in accordance with JIS-K7103-1977 is preferably 50 or less, more preferably 20 or less, and yet more preferably 15 or less.

A short description of data set [5]: Discoloration test in PBS or ion exchanged water. It counts as physicochemical. The procedure: (§1) 1 mg of anti-allergen agent (1) of Example 2-1 was placed in 0.5 mL of PBS (pH 7.29, containing 0.1% Tween 20 and 0.001% BSA) and allowed to stand at room temperature for 3 days, color change and allergen inactivating effect were then measured, and the results are shown in Table 7.
1 mg of anti-allergen agent (1) of Example 2-1 was placed in 0.5 mL of ion exchanged water (pH 6.37) and allowed to stand at room temperature for 7 days, color change was then examined, and the result is shown in Table 7.
(§2) 1 mg of tannic acid was placed in 0.5 mL of PBS (pH 7.29, containing 0.1% Tween 20 and 0.001% BSA) and allowed to stand at room temperature for 3 days, color change and allergen inactivating effect were then measured, and the results are shown in Table 7.
1 mg of tannic acid was placed in 0.5 mL of ion exchanged water (pH 6.37) and allowed to stand at room temperature for 7 days, color change was examined, and the result is shown in Table 7.

For the next data set, the system named is allergen. The data set is described as follows: Allergen inactivating effect after standing in PBS (discoloration test). It counts as biochemical. As to conditions: 1 mg after 3 days in 0.5 mL PBS at room temperature. The procedure:
as §1, §2

`O=C(OC[C@H]1O[C@@H](OC(=O)c2cc(O)c(O)c(OC(=O)c3cc(O)c(O)c(O)c3)c2)[C@H](OC(=O)c2cc(O)c(O)c(OC(=O)c3cc(O)c(O)c(O)c3)c2)[C@@H](OC(=O)c2cc(O)c(O)c(OC(=O)c3cc(O)c(O)c(O)c3)c2)[C@@H]1OC(=O)c1cc(O)c(O)c(OC(=O)c2cc(O)c(O)c(O)c2)c1)c1cc(O)c(O)c(OC(=O)c2cc(O)c(O)c(O)c2)c1` [Comparative Example 2-1, Tannic Acid]: in data set [1], the “Percentage allergen inactivation (%) DerfII” value was found to be 95%. For the same compound, in data set [2], the “Percentage allergen inactivation (%) Cryj1” value was determined as 97%. Also, the “Percentage allergen inactivation (%)” value in data set [3] was “activity disappeared after washing”; with allergen, “Less than 50%”. For the same compound, the Yellowness in data set [4] is listed as 71.28; in data set [4] (listed as tannic acid) it was 71.8. The “Color of solution (after evaluation)” value in data set [5] (1 mg in 0.5 mL PBS pH 7.29 (0.1% Tween 20, 0.001% BSA), room temperature, 3 days) is recorded as “Brown”; in data set [5] (1 mg in 0.5 mL ion exchanged water pH 6.37, room temperature, 7 days) it was “Brown”.
